Results from PubChem BioAssay (NCI).
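Assay format: 96-well plates, 48-hour exposure. Abbreviation: GI50, concentration required for 50% inhibition of growth. At the TGI there is no net growth.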

Columns and labels:
Experiment in all cases: NCI anticancer screen, dose series, 48 h
MCF7 breast = system: MCF7 breast
PC-3 prostate = system: PC-3 prostate
BT-549 breast = system: BT-549 breast
MDA-MB-435 = system: MDA-MB-435
KM20L2 colon = system: KM20L2 colon
LXFL 529 NSCLC = system: LXFL 529 NSCLC
DLD-1 colon = system: DLD-1 colon

Compound	GI50 (MCF7 breast) [µM]	TGI (MCF7 breast) [µM]	GI50 (PC-3 prostate) [µM]	TGI (PC-3 prostate) [µM]	GI50 (BT-549 breast) [µM]	TGI (BT-549 breast) [µM]	GI50 (MDA-MB-435) [nM]	TGI (MDA-MB-435) [µM]	TGI (KM20L2 colon) [µM]	TGI (LXFL 529 NSCLC) [µM]	TGI (DLD-1 colon) [µM]
COC(=O)CCC/C=C\C[C@H]1C=CC(=O)/C1=C/C[C@@H](O)CCc1cccc(C(F)(F)F)c1	0.775	12.9	2.63	7.6	2.68	9.25	2010	6.15	–	–	–
COc1cc(-c2cnn(C)c2)ccc1Nc1ncc2ccnc(N[C@@H](C)C(C)(C)C)c2n1	> 63.1	> 100	> 96.1	> 100	> 68.5	> 100	> 75100	> 100	–	–	–
COc1ccc2c(c1)sc1nc(-c3ccccc3)c(-c3ccsc3)n12	3.78	> 100	4.02	> 100	6.56	> 100	–	–	–	–	–
CCN(CC)CCNc1c(OC)cc(C)c2sc3ccccc3c(=O)c12	–	18.7	–	20.8	–	24.2	–	8.16	–	–	–
CC(=O)Oc1cc(C)ccc1[C@]1(C)CC[C@H](C)/C1=C\Br	4.07	15.3	3.33	12.3	4.1	17.6	1490	3.89	–	–	–
COc1cc2c(cc1C)NC(=O)/C2=C\c1cc(OC)c(OC)c(OC)c1	42.2	> 100	> 100	> 100	29.6	> 100	> 100000	> 100	–	–	–
Nc1c(C(=O)c2ccccc2)sc2nc(-c3cccs3)ccc12	0.0878	4.6	0.176	10.1	0.332	11.6	27	1.03	–	–	–
CCCCCCNC(=O)C1=C(C)NC(C)=C(C(=O)NCCCCCC)C1	–	> 100	–	> 100	–	> 100	–	> 100	–	–	–
Oc1ccc(Br)cc1Sc1cc(Br)ccc1O	11.2	30	10.6	29.4	8.46	23	5230	19.8	–	–	–
O=C(Nc1ccc(Cl)cc1)Nc1ccc(Cl)c(Cl)c1	2.27	8.9	2.97	> 100	–	–	3400	> 100	–	–	–
COc1cc2c(cc1OCc1ccccc1)N=C[C@@H]1C/C(=C/C(=O)NCCCN3C(=O)c4cccc5cccc(c45)C3=O)CN1C2=O	0.256	14.3	0.351	9.35	0.273	1.08	673	3.05	–	–	–
COC1=CC23C=CC1[C@@H](c1ccccc1)C2=C(C)C(=O)N3C(=O)NC1CCCCC1 (stereo partly drawn)	–	–	–	–	–	–	–	–	50.7	–	–
COc1cc(/C=C/c2cc(C(F)(F)F)[nH]c(=O)n2)ccc1OCc1ccccc1F	4.13	17.3	9.06	29	5.04	20.6	3770	17	–	–	–
Cc1nn(C(=O)c2ccccc2O)c2c1C(c1ccccc1)SC(N)=N2 (stereo not drawn)	–	> 10	–	> 10	–	> 10	–	> 10	–	–	–
CCCCC#COP(=O)(OCC)OCC	–	–	–	–	–	–	–	–	> 100	> 100	> 100
CN(C)c1ccc(/C=C2\Oc3cc(O)ccc3C2=O)cc1	–	> 100	–	> 100	–	> 100	–	> 100	–	–	–
C=CC(=O)N1CCCC(n2nc(-c3ccc(Oc4ccccc4)cc3)c3c(N)ncnc32)C1 (stereo not drawn)	7.88	23.9	10	24.2	5.85	18.5	7850	22.5	–	–	–
CCCCCCC/C=C/[C@H]1O[C@]23C(=O)C[C@@]4(C[C@@H](OC5OC(CO)C(O)C(O)C5O)C[C@@H]4[C@H]2C=C1C)OC3=O (stereo partly drawn)	1.36	26.9	3.81	12.9	2.06	12.9	2020	7.68	–	–	–
O=C(O)C1CCc2ccc3ccccc3c2C1c1cccc2ccccc12 (stereo not drawn)	–	89.4	–	41.2	–	38.8	–	73.7	–	–	–
Cc1cc(/C=C2\SC(=Nc3ccccc3)N(C3CCCC3)C2=O)c(C)n1-c1ccc(Cl)cc1	> 100	> 100	75.5	> 100	> 100	> 100	> 100000	> 100	–	–	–
CC1(C)C=CC[C@]2(C)[C@H]3CC[C@@H]4[C@H]5[C@H](C(=O)/C=C/c6cccnc6)CC[C@]5(CO)CC[C@@]4(C)[C@]3(C)CC[C@@H]12	–	–	0.505	1.91	–	–	1320	2.64	–	–	–
